Source: US5661182A, “Method for lowering oxygen affinity of hemoglobin in redcell suspensions, in whole blood and in vivo” (Virginia Commonwealth University, priority 1995, dated 1997)
“Also recorded” adds a separate entry of the source.

Experiments:
[1] = molecular target: hemoglobin in fresh human red blood cells (Homo sapiens, UniProt P68871+P69905); assay: Oxygen equilibrium curves of fresh human red cell suspensions (p50); assay type: cell-based; settings: for potency in raising p50 / lowering the oxygen affinity: fresh human red cells, absence of albumin; for P50: effector 0.5 mM, pH 7.4, 37 °C; for inhibition of the allosteric effect by albumin: human red cells, 50 or 100 μM HSA
hemoglobin in fresh human red blood cells, sequence (P69905 whole entry): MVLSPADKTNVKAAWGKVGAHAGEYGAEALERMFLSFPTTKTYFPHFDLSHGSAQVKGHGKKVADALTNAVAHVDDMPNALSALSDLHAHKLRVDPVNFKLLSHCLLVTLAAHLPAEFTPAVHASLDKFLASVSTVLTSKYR
hemoglobin in fresh human red blood cells, sequence (P68871 whole entry): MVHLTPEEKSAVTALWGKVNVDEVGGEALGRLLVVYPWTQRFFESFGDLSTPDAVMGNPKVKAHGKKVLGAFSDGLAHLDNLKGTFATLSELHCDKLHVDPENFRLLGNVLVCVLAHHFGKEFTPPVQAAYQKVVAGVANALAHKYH
Description: (§1) Human blood was collected on heparin from healthy nonsmoking donors. Bovine blood was provided by Pr Delpech, INA (Paris-Grignon). Red blood cells were washed three times in isotonic buffer, kept at 4° C., and used within 24 h after sampling. Hemoglobin Yakima, a high-oxygen-affinity variant [α2 β2 99 (G1) Asp>>His], was obtained from a known heterozygous carrier. Fresh Yakima red cells were processed in the same way as described above.
(§2) L3,5 and L3,4,5 were provided by Dr. Lalezari (Montefiore Hospital, New York); RSR-4 [2-[4-[[(3,5-dichloroanilino)carbonyl]methyl]phenoxy]-2-methylpropionic acid]and RSR13 [2-4-[[(3,5- dimethylanilino)carbonyl]methyl]phenoxy]-2-methylpropionic acid] have been synthesized following the procedure described in Randad et al. (J. Med. Chem. 34,752 (1991)). Human serum albumin (HSA), bovine serum albumin (BSA) and 4,4'diisothiocyanatostilbene-2,2'-disulfonate (DIDS) were purchased from Sigma (St. Louis, Mo.). Due to their low solubility in aqueous buffer, 10 mM stock solutions of the compounds were prepared in a slight exccess of sodium bicarbonate and back-titrated to pH 7.4. For example, RSR-4 or RSR-13 was dissolved at 60° C. in a 140 mM NaCl and 50 mM bis-Tris buffer at room temperature upon progressive addition of NaHCO3 to obtain 10 mM stock solutions. The pH was carefully adjusted to 7.4 after complete solubilization and before use of the solutions. Fresh solutions were prepared each week. Stock solutions of DIDS (1 mM) were prepared, in the dark, on the day of the experiments in a pH 7.4 buffer. Human serum albumin (defatted HSA) and bovine serum albumin (BSA) were prepared freshly as 1 mM stock solutions, pH 7.4. Equilibrium Measurements. The allosteric modulation of the effectors on freshly prepared solutions of hemoglobin or red cell suspensions was measured by the change in p50, the partial pressure of oxygen for half-saturation. Oxygen equilibrium curves (OEC) were carried out with the Hemox analyzer (TCS, Southampton, Pa.) under the following conditions: pH 7.4, 140 mM NaCl and 50 mM bis-Tris buffer at 37° C. In all experiments, the concentration of hemoglobin in the red cell suspensions was 20-25 μM hemoglobin tetramer (Hb4) as measured by Drabkin's method (cyanomethemoglobin) at the end of each recording. The final concentration of the allosteric effector in the cuvette was 0.5 mM, resulting in an effector/Hb4 ratio of 20 in the absence of albumin. OEC were also made in the same buffer containing 12.5, 25, 50, and 100 μM HSA (for human red cell suspensions) or BSA (for bovine cell suspensions). The serum albumin experiments were carried out with traces of an antifoaming agent. This agent has no deleterious effect on the red cell suspensions. The molar ratio of albumin to tetrameric hemoglobin was varied from 0.5 (at 12.5 μM HSA) to 4 (at 100 μM HSA); in whole blood this ratio is approximately 0.3 (0.7 mM albumin plus plasma proteins/2.25 mM Hb4). Therefore, the concentration of albumin used in the present studies was always larger relative to tetrameric hemoglobin than that found in whole blood.
Equilibrium oxygen binding curves were also recorded for red cell suspensions (10% hematocrit) that had been reacted for 30 min in the dark at 37° C. with 20 μM DIDS, a specific inhibitor of the red cell membrane anion channel. Kinetic Experiments. The kinetics of the interaction between the effectors and intracellular hemoglobin were measured in the absence and presence of varying concentrations of HSA. The red cell suspensions were equilibrated under room air (pO2 =140 mmHg) at 37° C. in the optical cuvette of the Hemox analyzer, which provides a constant stirring of the suspensions. […] Changes in absorbance were recorded and stored on tape for further analyses. […]

[2] = molecular target: intracellular hemoglobin, human red cells (Homo sapiens, UniProt P68871+P69905); assay: Kinetics of interaction between effectors and intracellular hemoglobin (absorbance at 560 nm) in human red cell suspensions; assay type: cell-based; settings: for ΔA560: effector 0.5 mM, room air
intracellular hemoglobin, human red cells, sequence (P69905 whole entry): as the sequence (P69905 whole entry) above
intracellular hemoglobin, human red cells, sequence (P68871 whole entry): as the sequence (P68871 whole entry) above
Description: Equilibrium oxygen binding curves were also recorded for red cell suspensions (10% hematocrit) that had been reacted for 30 min in the dark at 37° C. with 20 μM DIDS, a specific inhibitor of the red cell membrane anion channel. Kinetic Experiments. The kinetics of the interaction between the effectors and intracellular hemoglobin were measured in the absence and presence of varying concentrations of HSA. The red cell suspensions were equilibrated under room air (pO2 =140 mmHg) at 37° C. in the optical cuvette of the Hemox analyzer, which provides a constant stirring of the suspensions. […] Changes in absorbance were recorded and stored on tape for further analyses.
An increase in absorbance at 560 nm (εmax for deoxy-Hb in the visible spectrum) under room air indicates the formation of partially deoxygenated Hb in the red cells and a decreased oxygen affinity of Hb, provided that the pH is held constant.
Examples of these kinetic recordings are illustrated in FIG. 4. Two indices were calculated from the experimental values: ΔA560 is the difference in optical density from the base line to the plateau and t1/2 is […]. […]

[3] = molecular target: hemoglobin in fresh bovine red blood cells (Bos taurus, UniProt P01966+P02070); assay: Oxygen binding of fresh bovine red blood cells (p50); assay type: cell-based; settings: for RBC (p50): bovine RBC, effector 0.5 mM, pH 7.4, 37 °C
hemoglobin in fresh bovine red blood cells, sequence (P01966 whole entry): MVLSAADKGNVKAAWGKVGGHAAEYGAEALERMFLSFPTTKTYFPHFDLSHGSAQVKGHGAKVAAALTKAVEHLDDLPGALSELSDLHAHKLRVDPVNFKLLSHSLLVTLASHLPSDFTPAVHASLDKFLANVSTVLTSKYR
hemoglobin in fresh bovine red blood cells, sequence (P02070 whole entry): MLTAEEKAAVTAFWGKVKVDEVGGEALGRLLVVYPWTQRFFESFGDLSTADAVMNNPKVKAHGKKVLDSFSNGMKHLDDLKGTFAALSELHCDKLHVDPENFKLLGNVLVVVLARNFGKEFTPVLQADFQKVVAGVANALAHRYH
Description: as §1, §2
Bovine Red Cell Studies. Table 2 presents data for oxygen binding measurements for fresh bovine red blood cells and isolated Hb solutions on addition of the effectors L3,5, RSR-4, and RSR-13. The experimental conditions used were the same as described in conjunction with Table 1 for human red blood cells. The oxygen equilibrium curves for Hb solutions were made at pH 7.2, 100 mM NaCl and 50 mM bis-Tris buffer at 25° C. Catalase (20 μg/mL) and 50 μM EDTA were added to oppose oxidation of the hemes. The concentration of the effectors was 0.5 mM in all conditions. In Table 2, BSA is bovine serum albumin and P50 (mmHg) is the pO2 for 50% saturation.

hemoglobin = assay: Comparison of allosteric effector strength (right shift of oxygen equilibrium curve); assay type: biochemical; settings: compounds of FIG. 1
[4] = human RBC pre-incubated 30 min with DIDS, no HSA
[5] = human RBC suspension, 50 μM HSA
[6] = human RBC suspension, 100 μM HSA
[7] = time for half-ΔA560, effector 0.5 mM, 12.5 μM HSA, 37 °C
[8] = time for half-ΔA560, effector 0.5 mM, 50 μM HSA, 37 °C
[9] = time for half-ΔA560, effector 0.5 mM, 100 μM HSA, 37 °C
[10] = time for half-ΔA560, effector 0.5 mM, no HSA, 37 °C

| P50 [1, 4] [mm Hg] | P50 [1, 5] [mm Hg] | P50 [1, 6] [mm Hg] | P50 ([1]; human RBC suspension, no HSA) [mm Hg] | ΔA560 ([2]; 12.5 μM HSA, 37 °C) | ΔA560 ([2]; 50 μM HSA, 37 °C) | ΔA560 ([2]; 100 μM HSA, 37 °C) | ΔA560 ([2]; no HSA, 37 °C) | t1/2 [2, 7] [min] | t1/2 [2, 8] [min] | t1/2 [2, 9] [min] | t1/2 [2, 10] [min] | RBC (p50) ([3]; no BSA) [mmHg] | order of potency in lowering the oxygen affinity ([3]; bovine red cells) | p50 shift relative to control at 500 µM ([3]; bovine red cells, 0.5 mM) [%] | t1/2 ([2]; in the absence of albumin) | Structure (SMILES) | potency in raising p50 / lowering the oxygen affinity [1] | allosteric effector strength (hemoglobin) | inhibition of the allosteric effect by albumin [1] | also measured |
| --- | --- | --- | --- | --- | --- | --- | --- | --- | --- | --- | --- | --- | --- | --- | --- | --- | --- | --- | --- | --- |
| 54 | 32 | 28 | 60 | 0.124 | 0.058 | 0.029 | 0.181 | 1.54 | 1.83 | 1.92 | 0.55 | 35 | RSR-4>>L3,5>RSR-13 | 30 |  | CC(C)(Oc1ccc(NC(=O)Nc2cc(Cl)cc(Cl)c2)cc1)C(=O)O [L3,5, reference compound] | comparable; also recorded: almost equally potent effectors; also recorded: L3,5≈RSR-4>RSR-13 | L3,5≈RSR-4>RSR-13; also recorded: much stronger allosteric effect |  |  |
| 49 | 44.0 | 36 | 52.5 | 0.107 | 0.086 | 0.042 | 0.152 | 1.53 | 1.27 | 1.45 | 1 | 54 | RSR-4>>L3,5>RSR-13 |  | 1 min | CC(C)(Oc1ccc(CC(=O)Nc2cc(Cl)cc(Cl)c2)cc1)C(=O)O [RSR-4, 2-[4-[[(3,5-dichloroanilino)carbonyl]methyl]phenoxy]-2-methylpropionic acid] | comparable; also recorded: almost equally potent effectors; also recorded: L3,5≈RSR-4>RSR-13 | L3,5≈RSR-4>RSR-13 | less inhibited by albumin than the closely related compound L3,5; also recorded: much lower inhibition of RSR-4 by serum albumin than that observed with L3,5; also recorded: much less inhibited by 50 or 100 μM albumin than observed with L3,5 | P50 ([1]; human RBC suspension, 12.5 μM HSA): 48.5 mm Hg; RBC (p50) ([3]; 50 μM BSA): 45 mmHg; effect on control p50 ([3]; bovine red cells, 0.5 mM, without and with 50 μM BSA): doubling of the control p50 and persists even in the presence of 50 μM BSA |
|  | 34.0 | 32.6 | 37.8 |  | 0.082 | 0.067 | 0.085 |  | 2.3 | 2.08 | 2.32 | 31 | RSR-4>>L3,5>RSR-13 | 15 | over 2 min | Cc1cc(C)cc(NC(=O)Cc2ccc(OC(C)(C)C(=O)O)cc2)c1 [RSR-13] | weakest in reducing the oxygen affinity of Hb, relative to L3,5 or RSR-4; also recorded: L3,5≈RSR-4>RSR-13 | L3,5≈RSR-4>RSR-13 | much less affected by serum albumin, and its effect persists even in the presence of 100 1-M HSA | change in t1/2 upon addition of albumin ([2]; HSA added): No change |
